Key:
gamma carboxylation = conditions: cell free system; cited from earlier work
[1] = test system: Chinese hamster ovary (CHO) cells secreting Factor IX; conditions: cited from earlier work
rIX-FP CHO-K1 clone = assay: Reactor fed-batch culture (Experiment 2): rIX-FP activity, antigen, cell growth; assay type: cell-based, Chinese hamster; conditions: for Activity (total active produced) / Antigen (total antigen produced) / viable cell densities / growth profile / Ratio (active molecule to antigen): fed-batch; for Activity (total active produced) / Antigen (total antigen produced): Medium A, approx. 4 L; for Activity (total active produced) / Antigen (total antigen produced) / Ratio (active molecule to antigen): up to 192 hour post inoculation; for viable cell densities / growth profile: reduced versus non-reduced MSB
Description: The medium used for the propagation was a commercially obtainable serum-free chemically defined medium specifically designed for the production of recombinant proteins in CHO cells: “Medium A”. The clones utilised the Lonza glutamine synthetase (GS) system and were passaged in the absence of glutamine with selection maintained by 25 uM methionine sulfoximine (MSX). In the last culture stage, used for productivity measurement, both glutamine and MSX were not added to the medium.
Vitamin K is essential to the cell for the production of active recombinant Factor IX, due to the Vitamin K-dependent gamma-carboxylation of the molecule. In experiments describing the present invention Vitamin K3 in the form of Menadione sodium bi-sulphate (MSB, Sigma) was chosen as the source of Vitamin K as this form is water soluble and thus readily accessible to the cell. Addition of MSB occurred daily at a concentration of 50 ng/ml.
Due to the inherent unstable nature of the reduced MSB, quantification of exact concentrations of the reduced MSB was not available at the time of experimentation. Therefore all stated concentrations of reduced MSB are calculated values derived from the starting concentration of MSB at the commencement of the reduction process. It is anticipated that the actual reduced MSB concentration is less than the calculated amount due to some small losses occurring through the reduction process.
The reactors were Sartorius/Braun 5 L dished bottom glass reactors, with a single Rushton Impeller for agitation and a ring sparger. All reactor cultures were performed under the following conditions unless otherwise stated.
(§1) Cell counts were performed utilising the Innovartis Cedex automated cell counter in accordance with the manufacturers instructions. Glucose, lactate, ammonia and glutamine assays were performed utilising the Yellow Springs Instruments (YSI) 7100 analyser in accordance with the manufacturers instructions. Off-line determination of dissolved carbon dioxide concentrations were performed using the RapidLab 248 Blood Gas Analyser from Siemens (formerly Bayer) in accordance with the manufacturer's instructions. Antigen assay was performed using an internal procedure ELISA for Quantitation of Factor IX Antigen. The Factor IX Activity assay was performed using the “BIOPHEN FIX” chromogenic FIX test. Sampling was performed daily from the point of inoculation for all assays.
Under reactor fed-batch conditions a rIX-FP CHO-K1 clone was cultivated under the standard conditions. This experiment assessed the cell growth, antigen production and active rIX-FP production from the cell under either MSB addition or reduced MSB addition. The feed utilised in this experiment was glucose based (100 g/l) supplemented with the following amino acids: • ? Asparagine at 21.4 g/L; • ? Cysteine at 5.6 g/L; • ? Aspartic acid at 5 g/L.
The reactor test conditions were Reactor A4 utilising a non-reduced MSB addition and Reactor B4 utilising a reduced MSB addition. In both reactors Medium A was used as described in Example 4.

[2] = test system: CHO-S cells expressing albumin fused Factor VII; assay: Specific activity of albumin-fused Factor VII expressed in bioreactor culture (Experiment 6); assay type: cell-based, Chinese hamster; conditions: albumin-fused FVII; 50 ng/ml increased daily to 250 ng/ml; MSB n = 4, rMSB n = 25
Description: An albumin fused Factor VII was cloned and expressed in CHO-S cells as described in Thromb. Haemost. 2008 April; 99(4):659-67.
Cultivation of mammalian cells occurred under either batch or fed-batch conditions at a starting volume of 3 liters in a 5 liter bioreactor system. Controlled parameters were temperature (37° C.), pH (7.2), agitation (250 rpm) and dissolved oxygen. The medium used was a commercially available, chemically defined media (CD-CHO, Invitrogen) which was supplemented with MSB or rMSP in a starting concentration of 50 ng/ml. Each day the concentration was increased by 50 ng/ml until on day 5 a maximum concentration of 250 ng/ml was reached, which was then held for the remainder of the cultivation period.
The activity of FVII was determined using a chromogenic assay (COASET® FVII test kit (Chromogenix, 82190063)). The amount of protein was determined via reverse phase HPLC.

CHO-K1 clone A5 (rIX-FP) = assay: Extended draw-fill reactor culture (Experiment 3): rIX-FP activity, antigen, cell growth; assay type: cell-based, Chinese hamster; conditions: for Ratio / Activity / Antigen: extended draw-fill; for Activity / Antigen: approx. 7 L
Description: as §1
The CHO-K1 clone A5 was cultivated under extended draw-fill conditions with two media, Media A and yet another commercially obtainable serum-free chemically defined medium specifically designed for the production of recombinant proteins in CHO cells: Media C. While comparing the performance of the media, the effect of the addition of MSB or reduced MSB was assessed (Table 5). As with previous experiments the outputs from this investigation were growth parameters of the cell and the production of active rIX-FP molecule and rFIX-FP antigen.

[3] = test system: CHO-S cell line expressing rIX-FP; assay: Flask productivity assay (Experiment 1): FIX activity, FIX antigen; assay type: cell-based, Chinese hamster; conditions: for Ratio (activity/antigen) / Activity (Factor IX activity) / Antigen (Factor IX antigen): double addition; for Activity (Factor IX activity) / Antigen (Factor IX antigen): 50 ng/ml, mean of duplicate flasks
Description: as §1
The Flask productivity assay was performed as described below.
A CHO-S cell line expressing rIX-FP was used and cultured in an alternative commercially obtainable serum-free chemically defined medium specifically designed for the production of recombinant proteins in CHO cells (“Medium B”) with 8 mM L-glutamine. In the N−1 and N (with N being the last passage number) passage 50 ng/ml MSB was added. Another addition was performed at 48 hours post inoculation. Cultures were inoculated at 2×10^5 viable cells/mL at a 30 mL volume in a 125 mL shake flask, cultured at 37 C, 5% CO2, 125 rpm in a humidified incubator (Multitron, Infors HT). Samples were assayed for cell density, cell viability, rIX-FP activity and antigen content.
Experiment 1 was performed to assess the effect of reduced MSB on culture performance compared to additions of MSB in a flask format. The cells were subjected to the standard flask productivity assay with assays for cell density, Factor IX antigen and Factor IX activity performed.

[4] = test system: CHO-S cell line expressing rIX-FP; assay: as above; assay type: cell-based, Chinese hamster; conditions: single addition; for Activity (Factor IX activity) / Antigen (Factor IX antigen): 50 ng/ml, mean of duplicate flasks

Molecule	promotion of gamma carboxylation (gamma carboxylation)	amount of active rIX-FP (rIX-FP CHO-K1 clone; fed-batch conditions) [IU]	Activity (total active produced) (rIX-FP CHO-K1 clone) [U]	Antigen (total antigen produced) (rIX-FP CHO-K1 clone) [U]	viable cell densities / growth profile (rIX-FP CHO-K1 clone)	Ratio (active molecule to antigen) (rIX-FP CHO-K1 clone)	Specific Activity, Mean [2] [IU/mg]	Ratio (CHO-K1 clone A5 (rIX-FP); Medium A)	Activity (CHO-K1 clone A5 (rIX-FP); Medium A, 50 ng/ml per day) [U]	Antigen (CHO-K1 clone A5 (rIX-FP); Medium A, 50 ng/ml per day) [U]	Ratio (CHO-K1 clone A5 (rIX-FP); Medium C)	Activity (CHO-K1 clone A5 (rIX-FP); Medium C, 50 ng/ml per day) [U]	Antigen (CHO-K1 clone A5 (rIX-FP); Medium C, 50 ng/ml per day) [U]	Ratio (activity/antigen) ([3]; 72 hours)	Activity (Factor IX activity) ([3]; 72 hours)	Antigen (Factor IX antigen) ([3]; 72 hours)	Ratio (activity/antigen) ([3]; 96 hours)	Activity (Factor IX activity) ([3]; 96 hours)	Antigen (Factor IX antigen) ([3]; 96 hours)	Ratio (activity/antigen) ([4]; 72 hours)	other results
Cc1cc(O)c2ccccc2c1O [reduced menadione]	inactive in promoting gamma carboxylation																				
vitamin K																					concentration in cell culture medium at which requirement to elicit active Factor IX reaches saturation [1]: 5 µg/mL
Reduced Menadione Sodium Bisulphite [rMSB]		35444	35444	38197	very similar growth profiles and maximum cell densities	0.93	392.6	0.66	30580	46254	0.62	24052	38528	0.93	477	514.5	0.71	902	1271	0.97	antigenic yield (rIX-FP CHO-K1 clone; fed-batch conditions): 38197 IU; antigenic yield as percent of the MSB value (rIX-FP CHO-K1 clone; fed-batch conditions): 77%; increase in active rIX-FP relative to MSB addition (rIX-FP CHO-K1 clone; fed-batch conditions): 59%; cell growth, reduced versus non-reduced MSB (CHO-K1 clone A5 (rIX-FP); draw-fill, 50 ng/ml per day): very little difference in relation to cell growth; antigenic material compared to MSB additions (CHO-K1 clone A5 (rIX-FP); draw-fill, Medium A): 78%; antigenic material compared to MSB additions (CHO-K1 clone A5 (rIX-FP); draw-fill, Medium C): 84%; increase in ratio compared to MSB additions (CHO-K1 clone A5 (rIX-FP); draw-fill, depending on media type): 19-35%; activity compared with non-reduced MSB additions ([3]; 72 hr): slightly higher than non-reduced MSB additions; activity compared with MSB addition ([3]; 96 hr): greater activity results than that obtained for the MSB addition; Activity (Factor IX activity) ([4]; 72 hours): 500; Antigen (Factor IX antigen) ([4]; 72 hours): 516; Ratio (activity/antigen) ([4]; 96 hours): 0.86; Activity (Factor IX activity) ([4]; 96 hours): 1070.5; Antigen (Factor IX antigen) ([4]; 96 hours): 1249
CC1=CC(=O)c2ccccc2C1=O [menadione, 2-methyl-1,4-naphthoquinone]	inactive in promoting gamma carboxylation																				
CC1(S(=O)(=O)[O-])CC(=O)c2ccccc2C1=O.[Na+] (stereo not shown) [MSB, Menadione sodium bisulphite, reference compound]		22357	22357	49479	very similar growth profiles and maximum cell densities	0.45	313.5	0.49	28864	58987	0.52	23570	45443	0.96	431.5	451.5	0.56	649	1155.5	0.57	activity values as percent of the reduced MSB addition values (CHO-K1 clone A5 (rIX-FP); draw-fill, both media types): 94-98%; Activity (Factor IX activity) ([4]; 72 hours): 357.5; Antigen (Factor IX antigen) ([4]; 72 hours): 625.5; Ratio (activity/antigen) ([4]; 96 hours): 0.24; Activity (Factor IX activity) ([4]; 96 hours): 629.5; Antigen (Factor IX antigen) ([4]; 96 hours): 2573

Reference: US9212214B2, “Methods of increasing the expression yield of vitamin K-dependent proteins” (CSL Limited, priority 2009, dated 2015)
